# Tests used:
# HIV [1] = assay: Test A: inhibition of the HIV-induced cytopathic effect in MT-4 cells (MTT); format: cell-based
# Experimental: (§1) A rapid, sensitive and automated assay procedure was used for the in vitro evaluation of anti-HIV agents. An […] T4-cell line, MT-4, which was previously shown (Koyanagi et al., Int. J. Cancer, 36, 445-451, 1985) to be highly susceptible to and permissive for HIV infection, served as the target cell line. Inhibition of the HIV-induced cytopathic effect was used as the end point. The viability of both HIV- and mock-infected cells was assessed spectrophotometrically via the in situ reduction of 3-(4,5-dimethylthiazol-2-yl)-2,5-diphenyltetrazolium bromide (MTT). […] The percent protection achieved by the compound in HTV-infected cells was calculated by the following formula:
# (§2) [formula] whereby (ODT)HIV is the optical density measured with a given concentration of the test compound in HIV-infected cells; (ODC)HIV is the optical density measured for the control unteated HIV-infected cells; (ODC)MOCK is the optical density measured for the control untreated mock-infected cells; all optical density values were determined at 540 nm. […] The ratio of CC50 to IC50 was defined as the selectivity index (SI).
# [2] = Test A: cytotoxicity in mock-infected MT-4 cells (MTT); format: cell-based; conditions: human
# Experimental: as §1, §2
# [3] = Test B: cytotoxicity in mock-infected MT-4 cells engineered with GFP under a constitutional promoter; format: cell-based; conditions: human
# Experimental: (§3) An […] T4-cell line, MT-4, which was previously shown (Koyanagi et al., Int. J. Cancer, 36, 445-451, 1985) to be highly susceptible to and permissive for HIV infection, served as the target cell line. In these cells, engineered with GFP (and an HIV-specific promotor), ongoing HIV-infection was measured fluorometrically. Cytotoxicity is measured in the same cells, but engineered with GFP under a constitutional promoter. The infection (or inhibition thereof) of HIV infected cells and the flourescence of mock-infected cells is assessed by the fluorescent GFP signal generated by the two above mentioned cell lines.
# HIV [4] = assay: Test B: HIV infection measured fluorometrically in MT-4 cells engineered with GFP (HIV-specific promotor); format: cell-based; conditions: Human immunodeficiency virus 1, MT4
# Experimental: as §3
# mock-infected MT-4 cells = assay: Test B: cytotoxicity in mock-infected MT-4 cells engineered with GFP under a constitutional promoter; format: cell-based
# Experimental: as §3
# [5] = Human immunodeficiency virus 1, MT4, read-out: pIC50 (converted)
SMILES,CC50 [3] [nM],IC50 (HIV [4]) [nM],PCC50 (mock-infected MT-4 cells),other results
Cc1cc(CCC#N)cc(C)c1Nc1nnc(Cl)c(Nc2ccc(C#N)cc2)n1,,,,melting point: 266 to 267 °C
Cc1cc(C#N)cc(C)c1Nc1cnnc(Nc2ccc(C#N)cc2)n1 [Compound 1],,,,IC50 (HIV [1]; [5]): 2e-09 M; CC50 ([2]; mock-infected MT-4 cells): > 100000 nM
Cc1cc(C#N)cc(C)c1Oc1nc(Nc2ccc(C#N)cc2)nnc1Cl [Compound 3],,,,IC50 (HIV [1]; [5]): 5.01e-09 M; CC50 ([2]; mock-infected MT-4 cells): > 100000 nM
COc1cc(OC)c(Nc2cnnc(Nc3ccc(C#N)cc3)n2)c(OC)c1 [Compound 36],,,,IC50 (HIV [1]; [5]): 5.01e-10 M; CC50 ([2]; mock-infected MT-4 cells): > 100000 nM
Cc1cc(C)c(Nc2nc(Nc3ccc(C#N)cc3)nnc2Cl)c(C)c1 [Compound 44],,,,"IC50 (HIV [1]; Human immunodeficiency virus 1, MT4, read-out: pIC50 (M) (converted)): 2.51e-09 M; CC50 [2]: > 25100 nM"
Cc1cc(/C=C/C(N)=O)cc(C)c1Oc1nc(Nc2ccc(C#N)cc2)nnc1C [Compound 48],25100,0.631,,
Cc1cc(/C=C/C(N)=O)cc(C)c1Nc1nc(Nc2ccc(C#N)cc2)nnc1C [Compound 58],10000,251,,
N#C/C=C/c1cc(F)c(Nc2nnc(Cl)c(Nc3ccc(C#N)cc3)n2)c(F)c1 [Compound 62],25100,3.16,,melting point: 276 to 277 °C
COc1cc(/C=C/C#N)cc(Cl)c1Nc1nc(Nc2ccc(C#N)cc2)nnc1C [Compound 70],,,6.2,
COc1cc(C=C(C)C#N)cc(C)c1Nc1nc(Nc2ccc(C#N)cc2)nnc1C [Compound 71],,,5.1,
N#CCCc1cc(Br)c(Nc2nnc(Cl)c(Nc3ccc(C#N)cc3)n2)c(Br)c1 [Compound 73],,,<4.6,
N#CCCc1cc(Cl)c(Nc2nnc(Cl)c(Nc3ccc(C#N)cc3)n2)c(Cl)c1 [Compound 74],> 25100,5.01,,melting point: 256 to 257 °C
N#CCCc1cc(Cl)c(Nc2nnc(Cl)c(Nc3ccc(C#N)cc3)n2)c(Br)c1 [Compound 75],> 25100,3.16,,melting point: 252 to 254 °C
N#C/C=C/c1cc(Cl)c(Nc2nnc(Cl)c(Nc3ccc(C#N)cc3)n2)c(Cl)c1 [Compound 76],,,<4.6,
N#C/C=C/c1cc(Cl)c(Nc2nnc(Cl)c(Nc3ccc(C#N)cc3)n2)c(Br)c1 [Compound 77],,,5.0,
